Assays:
St. Aereus = assay: Anti-microbial screening, agar dilution, St. Aereus; format: cell-based, Staphylococcus aureus; conditions: after 10, 20, 40 and 60 minutes at all dilutions 1:100, 1:200, 1:400, 1:800
Protocol: (§1) The antibacterial properties of the present compound were studied by the method of agar dilution. Test solutions of the compound were prepared in a concentration of 1% using dimethylformamide as a solvent then they are diluted in physiological solution to obtain the final experimental dilutions 1:100, 1:200, 1:400, and 1:800. The effect of these substances were compared with furacillin in a controllable study. The testing microbes used were gram positive bacteria St. Aereus, gram negative bacteria E. Coli, Ps. aeruginosa and Candida albicans fungi were taken. The experiments used for this survey were meat-pentonlu agar (EPA) for cultivation of bacteria and Saburo environment for fungi. Each experiment used 1 ml of test solution on each plate 500 min. Add 2 drops of emulsified with microbes feel. All experimental samples were taken from the agar after 10, 20, 40, and 60 minutes in the environment on the basis of Patrk planted. Bacteria were cultivated at a temperature of 37° C. for 1 day and the mushroom was kept in a thermostat for […] at a temperature of 28° C. Then results were checked.

E. Coli = assay: Anti-microbial screening, agar dilution, E. Coli; format: cell-based, Escherichia coli; conditions: after 10, 20, 40 and 60 minutes at all dilutions 1:100, 1:200, 1:400, 1:800
Protocol: as §1

Ps. aeruginosa = assay: Anti-microbial screening, agar dilution, Ps. aeruginosa; format: cell-based, Pseudomonas aeruginosa; conditions: after 10, 20, 40 and 60 minutes at all dilutions 1:100, 1:200, 1:400, 1:800
Protocol: as §1

Candida albicans = assay: Anti-microbial screening, agar dilution, Candida albicans; format: cell-based; conditions: after 10, 20, 40 and 60 minutes at all dilutions 1:100, 1:200, 1:400, 1:800
Protocol: as §1

melting point: 117 to 118 °C
SMILES: CC(O)Cn1c(-c2ccncc2O)nc(-c2ccccc2)c1-c1ccccc1 (centres unmarked) [4-(1-(2-Hydroxypropyl)-4,5-diphenyl-1H-imidazol-2-yl)pyridin-3-ol]
inhibition activity (in words) (St. Aereus): highest inhibition activity
inhibition activity (in words) (E. Coli): highest inhibition activity
inhibition activity (in words) (Ps. aeruginosa): highest inhibition activity
inhibition activity (in words) (Candida albicans): highest inhibition activity
